# Test results reported in patent US10088479B2, “Biomarker and uses thereof” (ISIS INNOVATION LIMITED, priority 2014, dated 2018).
# Where no end group is shown, it is not given here. [ ]: non-standard residue; d: D form. Cit = NC(=O)NCCC[C@H](N)C(=O)O
# B1: citrullinated FBG: recombinant FBG domain citrullinated in vitro with PAD (protein)
# chain: GLLYPFPKDCSQAMLNGDTTSGLYTIYLNGDKAEALEVFCDMTSDGGGWIVFLRRKNGRENFYQNWKAYAAGFGDRREEFWLGLDNLNKITAQGQYELRVDLRDHGETAFAVYDKFSVGDAKTRYKLKVEGYSGTAGDSMAYHNGRSFSTFDKDTDSAITNCALSYKGAFWYRNCHRVNLMGRYGDNNHSQGVNWFHWKGHEHSIQFAEMKLRPSNFRNLEGRRKRA
# modifications: non-natural residues; left off: small tags and cut ends
# notes: recombinant FBG domain citrullinated in vitro with PAD
# How the values were obtained:
# [1] = system: primary human macrophages; test: Cytokine synthesis in primary human macrophages stimulated with FBG peptides; type: cell-based; settings: 1 or 20 μM peptide, 24 h
# Procedure: After incubation the tissue was pipetted through a nylon mesh into a sterile beaker. The cells were then washed three times in complete medium (RPMI 1640 supplemented with 10% FCS). RA synovial fibroblasts were isolated from the mixed population of RA membrane cells by selection in DMEM (Bio-Whittaker) supplemented with 10% FBS, […], 100 U/ml penicillin, and streptomycin. Human monocytes were isolated from peripheral blood (London Blood Bank) and macrophages were derived from monocytes after differentiation for 4 days with 100 ng/ml of M-CSF.
# (§1) Macrophages were cultured at 1×10^5 cells/well in RPMI 1640 containing 5% (v/v) FBS and 100 U/ml penicillin/streptomycin in 96-well tissue culture plates for 24 h before stimulation. Cells were incubated for 24 h at 37° C. with no addition, 1.0 μM FBG, 1 ng/ml LPS or 1 or 20 μM FBG peptide. Where stated, cells were pre-incubated with 20 μM FBG peptides for 15 min.
# (§2) Supernatants were examined for the presence of the cytokines TNF-α, IL-6, and IL-8 by enzyme-linked immunosorbent assay (ELISA) according to the manufacturer's instructions (R&D systems). Absorbance was read on a spectrophotometric ELISA plate reader (Labsystems Multiscan Biochromic, Vantaa, Finland) and analyzed using the Ascent software program (Thermo Labsystems, Altrincham, UK).
# RA sera = test: IgG response to cyclic citrullinated FBG peptides in RA and control sera; type: binding, human; settings: RA sera (n=20) vs control sera (n=20)
# Source text: (A) Peptides with sequences corresponding to the amino acid sequence of FBG were designed, with the addition of cysteine residues at the amino and carboxy termini and the exchange of arginine for citrulline residues at positions identified by LC-MS/MS. (B) IgG response to citrullinated FBG peptides and arginine containing control peptides in patients with rheumatoid arthritis (RA; n=20) and healthy controls (n=20). The 95th percentile of the control sera was used to determine positivity (dashed line). Mann-Whitney U test was used to calculate p values for differences between groups (n.s.=no significant difference, *=p<0.05 and **=p<0.01, ***=p<0.001, […]).
# With reference to FIG. 31, the antibody response in 20 RA and 20 control sera to 6 cyclic FBG peptides, encompassing citrulline residues was evaluated.
# [2] = system: RA synovial membrane cultures; test: Blockade of spontaneous cytokine synthesis in RA synovial membrane cultures by FBG peptides; type: cell-based, human; settings: 24 h; for inhibition of cytokine synthesis at the highest concentrations: RA membrane cultures, peptide 25, 100 or 250 μM, highest concentration; for TNF and IL8 synthesis (spontaneous): RA synovial membrane cultures, 100 μM peptide
# Procedure: RA membrane cells (representing a mixed population of all synovial cell types) were isolated from synovial membranes obtained from patients undergoing joint replacement surgery (Brennan (1989)). Synovial membrane tissue was digested in RPMI 1640 (GIBCO) containing 5% fetal calf serum (FCS) (GIBCO), 5 mg/ml collagenase type IV (Sigma) and 0 15 mg/ml DNAse type I (Sigma) and incubated at 37° C. for 2 h.
# Immediately after isolation, RA membrane cells were cultured at 1×10^5 cells/well in RPMI 1640 containing 10% (v/v) FBS and 100 U/ml penicillin/streptomycin in 96-well tissue culture plates. Cells were incubated for 24 h at 37° C. with no addition, buffer control (PBS, 1% BSA, 0.01% NaN3), or with 25 μm, 100 μM or 250 μM of each FBG spanning peptide.
# as §2
# human macrophages = test: FBG or LPS induced cytokine synthesis in human macrophages after pre-incubation with FBG peptides; type: cell-based; settings: pre-incubation with 20 μM peptide, 24 h; for FBG mediated cytokine synthesis: then 1 μM whole FBG
# Procedure: as §1, §2
# [3] = system: human dermal fibroblasts (HDF); test: Cell adhesion to coated FBG, crystal violet; type: cell-based; settings: coated wells, 45 minutes
# Procedure: (§3) (A) The sequence identified to bind integrin αvβ3 is shown in white (Yokoyama et al., 2000). Within this sequence two Arginines (shown in black) were identified to be citrullinated. (B) Wells of a 96 well plate were coated with different concentrations of FBG, citrullinated FBG (cFBG), FBG incubated in buffer without Calcium (FBG —Ca^2+), or FBG incubated without PAD (FBG —PAD). As a positive control wells were coated with Fibronectin (FN) (1 ug/ml), and coating with BSA (10 mg/ml) served as negative control. Plates were incubated with human dermal fibroblasts (HDF) or synovial fibroblasts from RA patients (RAF) for 45 minutes and adhesion was measured by determining absorbance of attached cells after staining with crystal violet (0.1%). Data are shown as the mean of at least four independent experiments+s.e.m., *=p<0.05, **=p<0.01.
# [4] = system: synovial fibroblasts from RA joints (RAF); test: Cell adhesion to coated FBG, crystal violet; type: cell-based, human; settings: coated wells, 45 minutes
# Procedure: as §3
# [5] = system: primary human macrophages; test: TNF synthesis in primary human macrophages stimulated with native or citrullinated FBG; type: cell-based; settings: 0.1-1.0 μM, 24 h
# Procedure: Primary human macrophages were isolated as described above and cultured at 1×10^5 cells/well in RPMI 1640 containing 5% (v/v) FBS and 100 U/ml penicillin/streptomycin in 96-well tissue culture plates for 24 h before stimulation. Cells were incubated for 24 h at 37° C. with no addition (UN), different concentrations (uM) of native FBG (nFBG) or cit FBG (cFBG) or citrullination buffer alone (CIT) or cit buffer plus PAD enzyme (CIT+PAD).
# as §2, with “TNF-α” for “TNF-α, IL-6, and IL-8”
molecule,measurement,setting,value
TIGLLYPFPKDCSQAMLNGDTTSGLYTIYL [Peptide 1],induction of cytokine synthesis,[1],induced cytokine synthesis in a dose dependent manner
"CVFLRRKNG-Cit-ENFYQNWC (CVFLRRKNG[Cit]ENFYQNWC; also: cyclic, closure not given here) [CIT55]",antibody response,RA sera,strong antibody response
WIVFLRRKNGRENFYQNWKAYAAGFGDRRE [Peptide 3],inhibition of cytokine synthesis at the highest concentrations,[2],95%
same,TNF and IL8 synthesis (spontaneous),[2],inhibited
KTRYKLKVEGYSGTAGDSMAYHNGRSFST [Peptide 6],induction of cytokine synthesis,[1],induced cytokine synthesis in a dose dependent manner
WYRNCHRVNLMGRYGDNNHSQGVNWFHWKG [Peptide 8],LPS induced cytokine synthesis,human macrophages; then 1 ng/ml LPS,blocked
same,FBG mediated cytokine synthesis,human macrophages,blocked
same,inhibition of cytokine synthesis at the highest concentrations,[2],56%
same,TNF and IL8 synthesis (spontaneous),[2],inhibited
"CEMKL-Cit-PSNF-Cit-NLEGRRKRC (CEMKL[Cit]PSNF[Cit]NLEGRRKRC; also: cyclic, closure not given here) [CIT209/214]",antibody response,RA sera,strong antibody response
ELRVDLRDHGETAFAVYDKFSVGDAKTRYK [Peptide 5],induction of cytokine synthesis,[1],induced cytokine synthesis in a dose dependent manner
same,FBG mediated cytokine synthesis,human macrophages,specifically blocked
same,effect on TNF synthesis,[2]; RA membrane cells,no effect
same,maximal inhibition of IL8 synthesis,"[2]; RA membrane cells, dose dependent",81%
"CEMKLRPSNFRNLEG-Cit-Cit-KRC (CEMKLRPSNFRNLEG[Cit][Cit]KRC; also: cyclic, closure not given here) [CIT219/220]",antibody response,RA sera,strong antibody response
B1,adhesion of HDF,[3],reduces adhesion
same,adhesion of RAF,[4],reduces adhesion
same,cytokine (TNFα) synthesis compared with native FBG,[5],better at stimulating cytokine (e.g. TNFα) synthesis
